ChEMBL document CHEMBL4513161, “CO-ADD screening of MMV (CH) - Pandemic Response Box” (2021)

How the values were obtained:
Pseudomonas aeruginosa [1] = test: microbe, parasite or virus in culture; conditions: ATCC 27853, 18 h, ASSAY_TEST Inhibition of Bacterial Growth, detection method Absorption (OD600), MEDIA CAMHB, plate type 384well, NBS, CORNING #3640
Description: Antibacterial activity against Pseudomonas aeruginosa ATCC 27853 (CO-ADD:GN_042); MIC in CAMBH media using NBS plates, by OD(600)

Klebsiella pneumoniae = test: microbe, parasite or virus in culture; conditions: ATCC 700603, 18 h, ASSAY_TEST Inhibition of Bacterial Growth, detection method Absorption (OD600), MEDIA CAMHB, plate type 384well, NBS, CORNING #3640
Description: Antibacterial activity against Klebsiella pneumoniae MDR ATCC 70063 (CO-ADD:GN_003); MIC in CAMBH media using NBS plates, by OD(600)

Escherichia coli = test: microbe, parasite or virus in culture; conditions: ATCC 25922, 18 h, ASSAY_TEST Inhibition of Bacterial Growth, detection method Absorption (OD600), MEDIA CAMHB, plate type 384well, NBS, CORNING #3640
Description: Antibacterial activity against Escherichia coli ATCC 25922 (CO-ADD:GN_001); MIC in CAMBH media using NBS plates, by OD(600)

Acinetobacter baumannii = test: microbe, parasite or virus in culture; conditions: ATCC 19606, 18 h, ASSAY_TEST Inhibition of Bacterial Growth, detection method Absorption (OD600), MEDIA CAMHB, plate type 384well, NBS, CORNING #3640
Description: Antibacterial activity against Acinetobacter baumannii ATCC 19606 (CO-ADD:GN_034); MIC in CAMBH media using NBS plates, by OD600

HEK293 = test: cells; type: functional, Homo sapiens, ATCC CRL1573; conditions: Homo sapiens, ATCC CRL1573, HEK293; ASSAY_TEST Inhibition of Cell Viability; detection method Resazurin; Fluorescence (ex560/em590); MEDIA DMEM with 10% FBS; plate type 384well; TC; CORNING #3712; time 18 hr; read-out: CC50
Candida albicans = test: microbe, parasite or virus in culture; conditions: ATCC 90028, ASSAY_TEST Inhibition of Fungal Growth, detection method Absorption (OD530), plate type 384well, NBS, CORNING #3640
Description: Antifungal activity against Candida albicans ATCC 90028 (CO-ADD:FG_001); MIC in YNB media using NBS plates, by OD630

Staphylococcus aureus = test: microbe, parasite or virus in culture; conditions: ATCC 43300, 18 h, ASSAY_TEST Inhibition of Bacterial Growth, detection method Absorption (OD600), MEDIA CAMHB, plate type 384well, NBS, CORNING #3640
Description: Antibacterial activity against Staphylococcus aureus MRSA ATCC 43300 (CO-ADD:GP_020); MIC in CAMBH media, using NBS plates, by OD(600)

Pseudomonas aeruginosa [2] = test: Antibacterial activity against Pseudomonas aeruginosa PAO397 [PAO1 d(mexAB-oprM) d(mexCD-oprJ) d(mexEF-oprN) d(mexJKL) d(mexXY) d(opmH)] (CO-ADD:GN_211); MIC in CAMBH media using NBS plates, by OD(600); type: functional; conditions: ASSAY_TEST Inhibition of Bacterial Growth, detection method Absorption (OD600), MEDIA CAMHB, plate type 384well, CORNING #3640, time 18 hr

Description for Cryptococcus neoformans: Antifungal activity against Cryptococcus neoformans H99 ATCC 208821 (CO-ADD:FG_002); MIC in YNB media using NBS plates, by Resazurin OD(600-570)

COc1ccc(C[C@@H](C)[C@@H](C)Cc2ccc(OC)c(OC)c2)cc1OC [TERAMEPROCOL]
> 20 µM: MIC (Cryptococcus neoformans) | MIC (Pseudomonas aeruginosa [1]) | MIC (Klebsiella pneumoniae) | MIC (Escherichia coli) | MIC (Acinetobacter baumannii) | CC50 (HEK293) | MIC (Candida albicans) | MIC (Staphylococcus aureus) | MIC (Pseudomonas aeruginosa [2])

CCc1ccc(C2CC(C(F)(F)F)n3ncc(C(=O)NCc4ccc(OC)cc4)c3N2)cc1 (stereo unspecified)
> 20 µM: MIC (Cryptococcus neoformans) | MIC (Pseudomonas aeruginosa [1]) | MIC (Klebsiella pneumoniae) | MIC (Escherichia coli) | MIC (Acinetobacter baumannii) | CC50 (HEK293) | MIC (Candida albicans) | MIC (Staphylococcus aureus) | MIC (Pseudomonas aeruginosa [2])

c1ccc(Cn2c(-c3ccccn3)nc3ccccc32)cc1
> 20 µM: MIC (Cryptococcus neoformans) | MIC (Pseudomonas aeruginosa [1]) | MIC (Klebsiella pneumoniae) | MIC (Escherichia coli) | MIC (Acinetobacter baumannii) | CC50 (HEK293) | MIC (Candida albicans) | MIC (Staphylococcus aureus) | MIC (Pseudomonas aeruginosa [2])

CCCCCOc1ccc(/C=C2\Oc3c(ccc(O)c3O)C2=O)c(O)c1
> 20 µM: MIC (Cryptococcus neoformans) | MIC (Pseudomonas aeruginosa [1]) | MIC (Klebsiella pneumoniae) | MIC (Escherichia coli) | MIC (Acinetobacter baumannii) | CC50 (HEK293) | MIC (Candida albicans) | MIC (Staphylococcus aureus) | MIC (Pseudomonas aeruginosa [2])

CCCC(=O)OCCc1ccccc1
> 20 µM: MIC (Cryptococcus neoformans) | MIC (Pseudomonas aeruginosa [1]) | MIC (Klebsiella pneumoniae) | MIC (Escherichia coli) | MIC (Acinetobacter baumannii) | CC50 (HEK293) | MIC (Candida albicans) | MIC (Staphylococcus aureus) | MIC (Pseudomonas aeruginosa [2])

CCCC1(C2CC2)c2cc(Cl)ccc2NC(=O)N1C (stereo unspecified)
> 20 µM: MIC (Cryptococcus neoformans) | MIC (Pseudomonas aeruginosa [1]) | MIC (Klebsiella pneumoniae) | MIC (Escherichia coli) | MIC (Acinetobacter baumannii) | CC50 (HEK293) | MIC (Candida albicans) | MIC (Staphylococcus aureus) | MIC (Pseudomonas aeruginosa [2])

O=C(Nc1nnc(-c2ccc(Cl)cc2)o1)c1ccc(F)cc1
> 20 µM: MIC (Cryptococcus neoformans) | MIC (Pseudomonas aeruginosa [1]) | MIC (Klebsiella pneumoniae) | MIC (Escherichia coli) | MIC (Acinetobacter baumannii) | CC50 (HEK293) | MIC (Candida albicans) | MIC (Staphylococcus aureus) | MIC (Pseudomonas aeruginosa [2])

CC1(C)CC(NC(=O)C(=O)Nc2ccc(Cl)cc2)CC(C)(C)N1
> 20 µM: MIC (Cryptococcus neoformans) | MIC (Pseudomonas aeruginosa [1]) | MIC (Klebsiella pneumoniae) | MIC (Escherichia coli) | MIC (Acinetobacter baumannii) | CC50 (HEK293) | MIC (Candida albicans) | MIC (Staphylococcus aureus) | MIC (Pseudomonas aeruginosa [2])

O=C(Nc1nnc(-c2ccc(Cl)cc2)o1)c1nc2ccccc2s1
> 20 µM: MIC (Cryptococcus neoformans) | MIC (Pseudomonas aeruginosa [1]) | MIC (Klebsiella pneumoniae) | MIC (Escherichia coli) | MIC (Acinetobacter baumannii) | CC50 (HEK293) | MIC (Candida albicans) | MIC (Staphylococcus aureus) | MIC (Pseudomonas aeruginosa [2])

Nc1nc(O)c2ncn([C@@H]3O[C@H](CO)[C@@H](O)[C@H]3F)c2n1
> 20 µM: MIC (Cryptococcus neoformans) | MIC (Pseudomonas aeruginosa [1]) | MIC (Klebsiella pneumoniae) | MIC (Escherichia coli) | MIC (Acinetobacter baumannii) | CC50 (HEK293) | MIC (Candida albicans) | MIC (Staphylococcus aureus) | MIC (Pseudomonas aeruginosa [2])

O=C(/C=C/n1cnc(-c2cc(C(F)(F)F)cc(C(F)(F)F)c2)n1)NNc1cnccn1
> 20 µM: MIC (Cryptococcus neoformans) | MIC (Pseudomonas aeruginosa [1]) | MIC (Klebsiella pneumoniae) | MIC (Escherichia coli) | MIC (Acinetobacter baumannii) | CC50 (HEK293) | MIC (Candida albicans) | MIC (Staphylococcus aureus) | MIC (Pseudomonas aeruginosa [2])

Nc1nc2c(ncn2COC(CO)CO)c(=O)[nH]1 [GANCICLOVIR]
> 20 µM: MIC (Cryptococcus neoformans) | MIC (Pseudomonas aeruginosa [1]) | MIC (Klebsiella pneumoniae) | MIC (Escherichia coli) | MIC (Acinetobacter baumannii) | CC50 (HEK293) | MIC (Candida albicans) | MIC (Staphylococcus aureus) | MIC (Pseudomonas aeruginosa [2])

CNC(=O)C1O[C@@H](n2cnc3c(NCc4cccc(I)c4)nc(Cl)nc32)[C@H](O)[C@@H]1O (stereo partly specified)
> 20 µM: MIC (Cryptococcus neoformans) | MIC (Pseudomonas aeruginosa [1]) | MIC (Klebsiella pneumoniae) | MIC (Escherichia coli) | MIC (Acinetobacter baumannii) | MIC (Candida albicans) | MIC (Staphylococcus aureus) | MIC (Pseudomonas aeruginosa [2])
18.3 µM: CC50 (HEK293)

CCN(CC)CCCC(C)Nc1ccnc2cc(Cl)ccc12 (stereo unspecified) [CHLOROQUINE]
> 20 µM: MIC (Cryptococcus neoformans) | MIC (Pseudomonas aeruginosa [1]) | MIC (Klebsiella pneumoniae) | MIC (Escherichia coli) | MIC (Acinetobacter baumannii) | CC50 (HEK293) | MIC (Candida albicans) | MIC (Staphylococcus aureus) | MIC (Pseudomonas aeruginosa [2])
